Test results published in article PMC12686126, “LL‐37 Inhibits TMPRSS2‐Mediated S2' Site Cleavage and SARS‐CoV‐2 Infection but Not Omicron Variants” (Cell Proliferation, 2025).

What was measured:
[1] = system: S2 subunit of BA.2, BA.2.75, BA.4, BA.5, BQ.1, XBB, XBB.1.5, XBB.1.16, CH.1.1, XBB.1.9, XBB.2.3 and EG.5.1; assay type: binding, SARS‐CoV‐2 Omicron variants
[2] = system: S2 subunit of Omicron variants; assay type: binding, SARS‐CoV‐2 Omicron variants

## LLGDFFRKSKEKIGKEFKRIVQRIKDFLRNLVPRTES [LL‐37]
[1]
  binding of S2 subunit to immobilised LL‐37: much lower binding
[2]
  S2 subunit bound to plasma membrane with facilitation by LL‐37: S2 subunit of SARS‐CoV‐2 rather than Omicron variants obviously bound
